{"source": "paper PMC9029529", "about": "“Distinct Mechanisms of Cytotoxicity in Novel Nitrogenous Heterocycles: Future Directions for a New Anti-Cancer Agent” (Molecules, 2022)", "key": {"MDA-MB-231 cells [1]": {"system": "MDA-MB-231 cells", "experiment": "CellTiter-Glo assay, MDA-MB-231", "assay_type": "cell-based", "conditions": "Homo sapiens, 24 h, read-out: IC50 Breast Cancer MDA-MB-231", "method": "(§1) To validate the anti-proliferative activity of the imidazole derivatives, the compounds were tested against several cancer cell lines, which included breast cancer (MDA-MB-231, KAIMRC1, and KAIMRC2), colorectal cancer (HCT8), and acute promyelocytic leukemia cells (HL60). KAIMRC1 was isolated from a person with stage II-B breast cancer and is ER+/PR+ and HER2-. In comparison, KAIMRC2 was isolated from a person with metastasized breast cancer and is a triple-negative (ER-/PR-, and HER2-) tumor cell line.\n(§2) The CellTiter-Glo assay (Promega™, Madison, WI, USA) was used to evaluate imidazole and oxazolone derivatives cytotoxicity against various cancer cell lines; MCF-10A, HL60, MDA-MB-231, and HCT8, purchased from ATCC, USA, except KAIMRC1 and KAIMRC2, which were isolated, established, and characterized in the core laboratory facility KAIMRC, Riyadh, Saudi Arabia. The cells were seeded in white 96-well plates at a density of 5 × 10^3 cells/well in a 100 μL of growth medium with various concentrations of each compound ranging from 0 to 250 µM. Cells were incubated at 37 °C for 24 h. Plates were equilibrated at RT for 30 min. A quantity of 100 µL of CellTiter-Glo reagent was added to each well and mixed for 2 min on an orbital shaker. Plates were incubated for 10 min at RT before measuring the luminescence using an Envision plate reader (Perkin Elmer). Half-maximal inhibitory concentration IC50 values (μM) were calculated for each imidazole derivative from the dose–response curve. The cytotoxic effect at a concentration <10 µM was considered strongly active and from 11 to 100 µM was considered moderately active, whereas above 100 µM was deemed non-active. Mitoxantrone was utilized as a positive control. Experiments were performed in triplicates."}, "[2]": {"system": "tubulin in MDA-MB-231 cells", "experiment": "Tubulin staining and imaging (microtubular network)", "assay_type": "cell-based, human", "conditions": "48 h; for effect on the microtubular network / tubulin: MDA-MB-231, 15.6 and 31 µM", "source_text": "An established cytotoxic mechanism of action of some nitrogenous heteroaromatic compounds is through the inhibition of tubulin. Normal microtubule function is essential during mitosis for mitotic spindle formation to allow chromatid separation, without which cell replication would cease. In addition, microtubules are critical for maintaining the cytoskeletal integrity of normal cells. Currently used cytotoxic anti-neoplastic classes of drugs such as the taxanes and vinca alkaloids also either inhibit microtubule assembly or disassembly, thus preventing mitosis from occurring. Therefore, we investigated the effects of compounds 8 and 9 on the modulation of microtubule function by assessing their effect on tubulin.\nMDA- MB 231 cells were treated with compounds 8 and 9 at two concentrations, 15.6 and 31.25 µM, for 48 h. The cells were stained with tubulin tracker™ Green (Cat #T34075) in HBSS for 30 min and nucleus stain HOECHST33342 (blue) for 5 min. The samples were imaged with Zeiss laser-scanning 780 microscopes.\nFollowing the standard protocol, tubulin and microtubule-associated proteins (MAPs) were developed, accompanied by two cycles of polymerization and depolymerization. MDA-MB231 cells were treated with compounds 8 and 9 at concentrations of 31.25 and 15.6 µM for 48 h. Subsequently, the media was replaced with HBSS, and the MDA-MB231 cells were stained with tubulin tracker™ Green 51(Cat #T34075) for 30 min and HOECHST33342 for 5 min. The Zeiss laser-scanning 780 microscope was used for imaging."}, "MDA-MB-231 cells [3]": {"system": "MDA-MB-231 cells", "experiment": "MTT assay, MDA-MB-231", "assay_type": "cell-based, human", "conditions": "0 to 250 μM, read-out: IC50 Breast Cancer (MDA-MB-231)", "method": "To establish the cytotoxic effect of the nitrogenous derivatives, cells were treated with various concentrations of the drugs ranging from 0 to 250 μM. Following a 24 h incubation period, cell viability was assessed using the MTT assay. Mitoxantrone served as a positive control to evaluate growth inhibition. Since heterogeneity is a hallmark of cancer, the study included cell lines with diverse genomic and proteomic profiles. […] In this regard, further optimization would be required to increase the selective therapeutic potential of compound 9. To determine whether the anti-proliferative effect of the nitrogen derivatives could be translated to other malignancies, we tested the cytotoxic effect on the HCT8 (colorectal cancer) cell line. HCT8 is an adenocarcinoma driven by the Kirsten Rat Sarcoma (KRAS) mutation, unlike MCF-10A [28].\nThe MTT assay was utilized to examine the imidazole derivatives’ anti-proliferative activity against MCF-10A, MDA-MB-231, and HCT8 cell lines, purchased from ATCC, USA [47]. Firstly, 5 × 10^3 cells/well were seeded in a 96-well plate in 100 μL of growth medium and were subsequently cultured overnight with various concentrations of each compound ranging from 0 to 250 µM [48]. The media was aspirated, and 50 µL of serum-free media and 50 µL of MTT solution were added to each well. Next, cells were incubated at 37 °C for 3 h, then 150 µL of MTT solvent was added into each well. After that, plates were wrapped in foil and agitated for 15 min on an orbital shaker. Finally, the absorbance was measured within 1 h at OD590 nm. Half-maximal inhibitory concentration IC50 values (μM) were calculated for each compound from the dose–response curve. Experiments were performed in triplicates."}, "KAIMRC2 cells": {"system": "KAIMRC2 cells", "experiment": "CellTiter-Glo assay, KAIMRC2", "assay_type": "cell-based", "conditions": "Homo sapiens, 24 h, read-out: IC50 Breast Cancer KAIMRC2", "method": "as §1, §2"}, "MDA-MB-231 cells [4]": {"system": "MDA-MB-231 cells", "experiment": "ApoTox-Glo triplex assay (caspase 3/7)", "assay_type": "cell-based, human", "conditions": "MDA-MB-231, 24 h, various concentrations", "source_text": "The ApoTox-Glo® triplex assay was utilized to further evaluate the effect of compound 9 on the MDA-MB-231 cancer cell viability, cytotoxicity, and apoptosis. This assay employs a luminogenic peptide substrate for caspase 3/7 to measure caspase activity, which is used as a marker for apoptosis within the cells. […] However, since this assay was time-dependent, the level of cytotoxicity (Figure 7B) determined, in this case, was not a true representative of the compound’s cytotoxic potential; it is reasonable to say that at the endpoint of apoptosis (Figure 7C), a heightened level of cytotoxicity would be observed.\nThe Promega ApoTox-Glo® triplex assay was conducted as described by the manufacturer. Briefly, the cells were incubated at 37 °C for 12 h and then treated for 24 h with various concentrations of compound 9 [29, 30]. Next, 100 µL of the Viability and Cytotoxicity Reagent was added to each well and briefly mixed on an orbital shaker. Plates were incubated at 37 °C for 30 min, and the fluorescence was measured at the following two-wavelength sets—400Ex/505Em (Viability) and 485Ex/520 Em (Cytotoxicity)—using the Envision plate reader (Perkin Elmer). […] Finally, to determine the level of apoptosis, the luminescence associated with caspase 3/7 activation was measured using an Envision plate reader (Perkin Elmer)."}}, "data": [{"smiles": "O=C1/C(=C/c2ccccc2)N=C(c2ccccc2)N1Nc1ccc([N+](=O)[O-])cc1[N+](=O)[O-]", "note": "[Compound 8]", "values": [{"measurement": "IC50", "setting": "MDA-MB-231 cells [1]", "value": 19, "unit": "µM"}, {"measurement": "effect on the microtubular network / tubulin", "setting": "[2]", "value": "no effect on tubulin"}, {"measurement": "IC50", "setting": "MDA-MB-231 cells [3]; 24 h", "value": 4.76, "unit": "µM"}, {"measurement": "IC50", "setting": "MDA-MB-231 cells [3]; Homo sapiens, MDA-MB-231, 24 h", "value": 4.7, "unit": "µM"}, {"measurement": "IC50", "setting": "KAIMRC2 cells", "value": 31.6, "unit": "µM"}]}, {"smiles": "COc1cccc(/C=C2\\N=C(c3ccccc3)N(Nc3ccc([N+](=O)[O-])cc3[N+](=O)[O-])C2=O)c1", "note": "[Compound 9]", "values": [{"measurement": "IC50", "setting": "MDA-MB-231 cells [1]", "value": 39.2, "unit": "µM"}, {"measurement": "microtubule inhibition", "setting": "[2]; MDA-MB-231, 31 µM", "value": "nearly complete microtubule inhibition"}, {"measurement": "effect on the microtubular network / tubulin", "setting": "[2]", "value": "interfered with the microtubular network"}, {"measurement": "caspase 3/7-mediated apoptosis", "setting": "MDA-MB-231 cells [4]", "value": "induced caspase 3-/7-mediated apoptosis in a dose-dependent manner"}, {"measurement": "IC50", "setting": "MDA-MB-231 cells [3]; Homo sapiens, MDA-MB-231, 24 h", "value": 17, "unit": "µM"}, {"measurement": "IC50", "setting": "KAIMRC2 cells", "value": 27.1, "unit": "µM"}]}]}
